# Experimental data reported in patent US20230187019A1, “METHOD FOR DETERMINING A DRUG COMBINATION VIA A BLOCKING MODEL OF A MULTI-SITE-TARGETED PROTEIN AND APPLICATIONS THEREOF” (National Tsing Hua University, priority 2021, published 2023).
# Several values for one entry are separate records, joined by “and”; a condition that tells them apart may be missing. Equal entries are not always repeated. Where two headings read alike, the source gives them in different places.
# T1: ATG4B (Homo sapiens, UniProt Q9Y4P1)
# T1 sequence (Q9Y4P1 whole entry, looked up): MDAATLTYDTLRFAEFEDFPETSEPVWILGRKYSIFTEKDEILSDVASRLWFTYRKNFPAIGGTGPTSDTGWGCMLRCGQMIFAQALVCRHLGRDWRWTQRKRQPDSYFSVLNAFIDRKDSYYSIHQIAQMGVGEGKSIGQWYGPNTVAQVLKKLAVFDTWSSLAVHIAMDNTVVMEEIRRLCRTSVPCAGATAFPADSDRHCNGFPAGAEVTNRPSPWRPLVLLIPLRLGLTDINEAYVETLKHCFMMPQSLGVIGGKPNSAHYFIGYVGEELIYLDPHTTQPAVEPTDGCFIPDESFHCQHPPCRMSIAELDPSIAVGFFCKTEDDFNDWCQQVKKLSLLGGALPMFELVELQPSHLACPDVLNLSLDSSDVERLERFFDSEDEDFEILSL
# B1: autophagy related 4B cysteine peptidase (ATG4B) (protein)
# chain: T1 sequence (Q9Y4P1 whole entry, looked up)
# Experiments:
# HCT116 = assay: Cell viability assay on HCT116; format: cell-based, human; settings: for viability at 20 µM: Homo sapiens, HCT-116, remaining viability, read-out: HCT116 Cell Viability; for viability at 20 µM / HCT116 Cell Viability: 20 μM drug, normalized by blank control, three repeats; for HCT116 Cell Viability: remaining viability
# AK4.4 = assay: Cell viability assay (MTT) on AK4.4; settings: for IC50: Mus musculus
# AsPC-1 = assay: Cell viability assay (MTT) on AsPC-1; settings: for viability at 20 µM / IC50: Homo sapiens; for viability at 20 µM: ASPC1, read-out: AsPC-1 Cell Viability, remaining viability, 20 μM drug, normalized by blank control, three repeats; for AsPC-1 Cell Viability: remaining viability, 20 μM drug, normalized by blank control, three repeats
# ATG4B [1] = molecular target: T2, ATG4B (Homo sapiens, UniProt Q9Y4P1); assay: ATG4B enzyme activity assay by S-tag-based immunoblotting; format: biochemical; settings: read-out: inhibition of ATG4B catalysis
# Text: Protein expression and purification for the study of prediction of the allosteric sites in ATG4B Human ATG4B with N-terminal 6xHis-tag and human LC3B with both N-terminal 6xHis-tag and C-terminal S-tag were cloned into pETDuet-1 expression plasmids as previously described (Shu, C W et al., 2010, Autophagy 6, 936-947), subsequently transformed into E. coli BL21 (ECOS 21, Yeastern Biotech Co., FYE207-40VL). A single colony harboring the correctly in-frame inserted gene was inoculated into an overnight culture that was then diluted 100-fold in fresh Luria-Bertani broth with 50 μg/mL ampicillin for growing at 37° C. with 200 rpm agitation for 2 to 3 hours until the optical density of the culture at 600 nm reaches 0.4 (around 3×10^8 cells/mL). […]
# The expression cell culture was harvested by 12,000×g centrifugation at 4° C. for 20 minutes, and the cell pellets of 1 liter broth were resuspended in a 10 mL lysis buffer (50 mM Tris-HCl, pH 7.4, 300 mM NaCl, 20 mM imidazole). […] The protein purity was verified >90% by Coomassie blue staining on SDS-PAGE, and the quantity was measured by bicinchoninic acid assay.
# ATG4B enzyme activity assay was analyzed by immunoblotting. […] The intensities of remaining substrate LC3B after enzymatic cleavage were quantified by the software ImageJ.
# shATG4B/HCT116 = assay: Cell viability assay on shATG4B/HCT116 (ATG4B silencing strain); format: cell-based, human; settings: 20 μM drug, S strain; for viability at 20 µM: Homo sapiens, HCT-116, remaining viability, read-out: shATG4B/HCT116 Cell Viability
# shCtrl/HCT116 = assay: Cell viability assay on shCtrl/HCT116 (control strain); format: cell-based, human; settings: 20 μM drug, C strain; for viability at 20 µM: Homo sapiens, HCT-116, remaining viability, read-out: shCtrl/HCT116 Cell Viability
# ATG4B [2] = molecular target: T2, ATG4B; assay: In vitro cleavage assay of ATG4B catalytic activity (western blot of tagged LC3B); format: biochemical; settings: read-out: inhibition on ATG4B's catalytic activity
# [3] = in vivo
# [4] = test system: AK4.4 pancreatic ductal adenocarcinoma (PDAC) xenograft; settings: dose of 20 mg/kg, I.P.
# ATG4B [5] = molecular target: T1, ATG4B; assay: In vitro cleavage assay of ATG4B catalytic activity (western blot of tagged LC3B); format: biochemical
# ATG4B [6] = molecular target: T1, ATG4B; assay: ATG4B activity reporter assay (cleaved PLA2 fluorescence); format: biochemical; parameters: host or cells: in silico model from PDB 2Z0D
# [7] = molecular target: full-length fusion protein composed of C-Myc, pro-LC3B, and S-tag, Q9GZQ8
# [8] = Tc concentration for 50% reduction of viability in combination with 0.50 μM Mx
# [9] = Tc concentration for 50% reduction of viability in combination with 1.00 μM Mx
# [10] = Tc concentration for 50% reduction of viability in combination with 2.5 μM Vb
# [11] = Tc concentration for 50% reduction of viability in combination with 5 μM Vb
# [12] = Tc concentration for 50% reduction of viability in combination with 10 μM Vb
molecule,measurement,setting,value
CO/N=C1\C[C@]2(C[C@@H]3C[C@@H](C/C=C(\C)C[C@@H](C)/C=C/C=C4\CO[C@@H]5[C@H](O)C(C)=C[C@@H](C(=O)O3)[C@]45O)O2)O[C@H](/C(C)=C/C(C)C)[C@H]1C [Moxidectin],viability at 20 µM,HCT116,2%
same,HCT116 Cell Viability,HCT116,1.7 ± 0.1%
same,IC50,"AK4.4; read-out: IC50, Mx, moxidectin alone, AK4.4 (Table 12)",1.07 µM
same,IC50,"AK4.4; read-out: IC50, Mx, moxidectin alone, AK4.4 (Table 14)",0.87 µM
same,"CMx, 50","AK4.4; Mx concentration in combination with Tc for a 50% reduction of the cell viability, listed as Mx",0.50 µM and 1.00 µM
same,"CMx, 50",AK4.4; Mx concentration in combination with Vb for a 50% reduction of the cell viability,0.50 µM
same,viability at 20 µM,AsPC-1,8%
same,IC50,"AsPC-1; ASPC1, read-out: IC50, Mx, moxidectin alone, AsPC-1 (Table 13)",1.38 µM
same,IC50,"AsPC-1; ASPC1, read-out: IC50, Mx, moxidectin alone, AsPC-1 (Table 15)",1.24 µM
same,"CMx, 50","AsPC-1; Mx concentration in combination with Vb for a 50% reduction of the cell viability, listed as Mx",0.50 µM and 1.00 µM
same,AsPC-1 Cell Viability,AsPC-1,7.8 ± 0.8%
same,inhibition at 10 µM,ATG4B [1]; 10 μM,36%
same,inhibition at 20 µM,ATG4B [1]; 20 μM,> 80%
same,viability at 20 µM,shATG4B/HCT116,1%
same,shATG4B/HCT116 Cell Viability,shATG4B/HCT116; remaining viability,0.9 ± 0.1%
same,viability at 20 µM,shCtrl/HCT116,1%
same,inhibition at 10 µM,ATG4B [2]; 10 μM,38%
Cc1ccc(C(=O)Nc2ccc(CN3CCN(C)CC3)c(C(F)(F)F)c2)cc1C#Cc1cnc2cccnn12 [Ponatinib],viability at 20 µM,HCT116,19%
same,HCT116 Cell Viability,HCT116,18.5 ± 0.6%
same,IC50,"AK4.4; read-out: IC50, Pn",0.51 µM
same,viability at 20 µM,AsPC-1,47%
same,AsPC-1 Cell Viability,AsPC-1,47.2 ± 1.3%
same,viability at 20 µM,shATG4B/HCT116,31%
same,viability at 20 µM,shCtrl/HCT116,21%
same,shCtrl/HCT116 Cell Viability,shCtrl/HCT116; remaining viability,21.3 ± 0.6%
same,inhibition at 5 µM,ATG4B [2],30%
Clc1ccc(C(Cn2ccnc2)OCc2ccsc2Cl)c(Cl)c1 (stereo not drawn) [tioconazole],decrease of cell viability of HCT116,"HCT116; human, 10 μM",33%
same,IC50,"AK4.4; read-out: IC50, Tc, tioconazole alone, AK4.4 (Table 8)",14 µM
same,IC50,"AK4.4; read-out: IC50, Tc, tioconazole alone, AK4.4 (Table 11)",12.5 µM
same,IC50,"AK4.4; read-out: IC50, Tc, tioconazole alone, AK4.4 (Table 12)",13 µM
same,"CTc, 50",AK4.4; Tc concentration for 50% reduction of viability in combination with 0.05 μM Pn,12.31 µM
same,"CTc, 50",AK4.4; Tc concentration for 50% reduction of viability in combination with 0.1 μM Pn,11.85 µM
same,"CTc, 50",AK4.4; Tc concentration for 50% reduction of viability in combination with 0.25 μM Pn,5.86 µM
same,"CTc, 50",AK4.4; [8],13.42 µM
same,"CTc, 50",AK4.4; Tc concentration for 50% reduction of viability in combination with 0.5 μM Pn,0.17 µM
same,"CTc, 50",AK4.4; [9],4.21 µM
same,"CTc, 50",AK4.4; [10],12.07 µM
same,"CTc, 50",AK4.4; [11],8.43 µM
same,"CTc, 50",AK4.4; [12],5.88 µM
same,IC50,"AsPC-1; ASPC1, read-out: IC50, Tc, tioconazole alone, AsPC-1 (Table 9)",13.5 µM
same,IC50,"AsPC-1; ASPC1, read-out: IC50, Tc, tioconazole alone, AsPC-1 (Table 13)",9.61 µM
same,"CTc, 50",AsPC-1; [8],8.61 µM
same,"CTc, 50",AsPC-1; [9],7.83 µM
same,"CTc, 50",AsPC-1; Tc concentration for 50% reduction of viability in combination with 1.25 μM Mx,5.65 µM
same,"CTc, 50",AsPC-1; [10],8.14 µM
same,"CTc, 50",AsPC-1; [11],6.32 µM
same,"CTc, 50",AsPC-1; [12],5.21 µM
same,"liver weight, % of mouse body weight",[3],5.69%
same,increase in the liver (relative organ weight),[3]; mouse,8%
same,increase in triglyceride as compared to the control,[3]; mouse,25%
same,triglyceride,[3]; mouse,198.2 mg/dL
same,tumor size measured on day 16 versus control group,[4],less than half of the tumor size in the control group
Ac-YDTLGIF-NH2 [N-term-7],inhibition to ATG4B activity at lower peptide concentration,ATG4B [5]; 1 μM peptide,maintained
same,inhibition to ATG4B activity,"ATG4B [5]; ATG4B cleavage assays, 10 μM peptide",about 30%
Ac-YDTLRFAEF-NH2 [N-term-9],inhibition to ATG4B activity at lower peptide concentration,ATG4B [6]; 1 μM peptide,maintained
same,inhibition to ATG4B activity,"ATG4B [6]; ATG4B activity reporter assays, 10 μM peptide",~25%
B1,cleavage of recombinant pro-LC3B (S-tag band on western blot),[7],"P: positive control, pro-LC3 mixed with ATG4B, and the cleavage by ATG4B resulting in the lighter band for S-tag"
same,"normalized S-tag band intensity (LICOR; divided by the negative control N) of lane P, no peptide, blot of the N7 series, ATG4B cleavage assay",[7],0.3
same,"normalized S-tag band intensity (divided by the negative control N) of lane P, no peptide, blot of the N18 series, ATG4B cleavage assay",[7],0.3
same,"normalized S-tag band intensity (image J; divided by the negative control N) of lane P, no peptide, blot of the N7 series, ATG4B cleavage assay",[7],0.4
